Laboratory results taken from ChEMBL document CHEMBL1151076, “Discovery of MK-0476, a potent and orally active leukotriene D4 receptor antagonist devoid of peroxisomal enxyme induction” (Bioorg Med Chem Lett, 1995).
pIC50: −log10 of the molar value.

Assays:
[1] = target: T1, Cysteinyl leukotriene receptor 1 (Cavia porcellus, UniProt Q2NNR5); assay: Concentration required for inhibition of binding of [3H]LTD4 to guinea pig lung membranes; assay type: tissue-based, Membrane
T1 sequence (Q2NNR5 whole entry): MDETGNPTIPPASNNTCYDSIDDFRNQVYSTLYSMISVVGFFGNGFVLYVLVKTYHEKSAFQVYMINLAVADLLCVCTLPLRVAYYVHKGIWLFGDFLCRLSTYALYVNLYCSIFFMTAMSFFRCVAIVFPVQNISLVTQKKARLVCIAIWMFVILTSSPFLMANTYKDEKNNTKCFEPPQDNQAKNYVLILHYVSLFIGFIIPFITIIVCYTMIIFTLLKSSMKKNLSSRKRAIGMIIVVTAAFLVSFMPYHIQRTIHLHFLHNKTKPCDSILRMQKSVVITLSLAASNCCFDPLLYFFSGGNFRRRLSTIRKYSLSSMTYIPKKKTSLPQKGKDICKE

Mus musculus [2] = assay: Peroxisomal enzyme induction in mice after administration of 400 mg/kg perorally for 4 days was determined.; assay type: functional; settings: route oral
Mus musculus [3] = assay: Liver weight increase in mice after administration of 400 mg/kg perorally for 4 days was determined.; assay type: functional; settings: route oral
Mus musculus [4] = assay: Peroxisomal enzyme induction in mice after administration of 200 mg/kg perorally for 4 days was determined.; assay type: functional; settings: route oral
Mus musculus [5] = assay: Liver weight increase in mice after administration of 200 mg/kg perorally for 4 days was determined.; assay type: functional; settings: route oral
[6] = target: T1, Cysteinyl leukotriene receptor 1; assay: Concentration required for inhibition of binding of [3H]-LTD4 to guinea pig lung membranes (different expt); assay type: tissue-based, Membrane
[7] = Bioavailability in squirrel monkey; assay type: ADME, organism-based; settings: saimiri, in vivo; read-out: Bioavailabiility
[8] = Terminal half-life was determined; assay type: ADME
Cavia porcellus = species: Cavia porcellus; assay: Antagonistic activity of leukotriene D4-induced contractions of non-tonal guinea-pig trachea; assay type: functional, organism-based; settings: read-out: pA2 (converted)
[9] = Reduction in the decrease in dynamic compliance after 4 hr of administration of 0.01 mg/kg to squirrel monkey; assay type: functional
[10] = Reduction of the increase in pulmonary resistance after 4 hr of administration of 0.01 mg/kg to squirrel monkey; assay type: functional

| SMILES | pIC50 [1] | PEI (Mus musculus [2]) [%] | LWI (Mus musculus [3]) [%] | further results |
| --- | --- | --- | --- | --- |
| CC(C)(CC(=O)O)S[C@H](CCc1ccccc1C(C)(C)O)c1cccc(/C=C/c2ccc3ccc(Cl)cc3n2)c1 | 9.17 | -10 | 3 |  |
| CC(CC(=O)O)S[C@H](CCc1ccccc1C(C)(C)O)c1cccc(/C=C/c2ccc3ccc(Cl)cc3n2)c1 (some centres not stated) | 9.10 |  |  | PEI (Mus musculus [4]): 22%; LWI (Mus musculus [5]): 5% |
| C[C@H](CC(=O)O)S[C@H](CCc1ccccc1C(C)(C)O)c1cccc(/C=C/c2ccc3ccc(Cl)cc3n2)c1 | 9.22 | 109 | 12 |  |
| CCC(CC(=O)O)S[C@H](CCc1ccccc1C(C)(C)O)c1cccc(/C=C/c2ccc3ccc(Cl)cc3n2)c1 (some centres not stated) | 9.24 | 188 | 9 |  |
| C[C@H](S[C@H](CCc1ccccc1C(C)(C)O)c1cccc(/C=C/c2ccc3ccc(Cl)cc3n2)c1)[C@@H](C)C(=O)O | 8.64 | 393 | 32 |  |
| CN(C)C(=O)CCSC(SCCC(=O)[O-])c1cccc(/C=C/c2ccc3ccc(Cl)cc3n2)c1.[Na+] (configuration not stated) | 8.82 | 318 | 38 | pIC50 [6]: 8.60 |
| CN(C)C(=O)CCS[C@H](SCCC(=O)[O-])c1cccc(/C=C/c2ccc3ccc(Cl)cc3n2)c1.[Na+] | 8.51 | 65 | 0 |  |
| CC(S[C@H](CCc1ccccc1C(C)(C)O)c1cccc(/C=C/c2ccc3ccc(Cl)cc3n2)c1)C(C)C(=O)O (some centres not stated) | 9.36 | 673 | 27 |  |
| CC(C)(O)c1ccccc1CC[C@@H](SCC1(CC(=O)O)CC1)c1cccc(/C=C/c2ccc3ccc(Cl)cc3n2)c1 [MONTELUKAST] |  | 16 | 0 | bioavailability [7]: 42%; half-life [8]: 4 h; Kb (Cavia porcellus): 0.501 nM; Reduction [9]: 78%; Reduction [10]: 56% |

Continued by rising pIC50 [1], values first:

| pIC50 [1] | SMILES | PEI (Mus musculus [2]) [%] | LWI (Mus musculus [3]) [%] | further results |
| --- | --- | --- | --- | --- |
| 9.37 | CC(CS[C@H](CCc1ccccc1C(C)(C)O)c1cccc(/C=C/c2ccc3ccc(Cl)cc3n2)c1)CC(=O)O (some centres not stated) | 18 | 10 |  |
| 9.48 | C[C@@H](CC(=O)O)S[C@H](CCc1ccccc1C(C)(C)O)c1cccc(/C=C/c2ccc3ccc(Cl)cc3n2)c1 | 24 | 11 |  |
| 9.52 | CC(C)(CS[C@H](CCc1ccccc1C(C)(C)O)c1cccc(/C=C/c2ccc3ccc(Cl)cc3n2)c1)CC(=O)O | 25 | 2 |  |
| 9.52 | C[C@H](C(=O)O)[C@@H](C)S[C@H](CCc1ccccc1C(C)(C)O)c1cccc(/C=C/c2ccc3ccc(Cl)cc3n2)c1 | 91 | 10 |  |
| 9.70 | CC[C@H](CS[C@H](CCc1ccccc1C(C)(C)O)c1cccc(/C=C/c2ccc3ccc(Cl)cc3n2)c1)C(=O)O |  |  | PEI (Mus musculus [4]): 608%; LWI (Mus musculus [5]): 63% |
